{
  "source": "patent EP0316212B1",
  "about": "(priority 1987, dated 1989)",
  "key": {"[1]": {"tested_on": "VSV (Vesicular Stomatitis Virus)", "test": "microbe, parasite or virus in culture", "assay_type": "cell-based"}, "[2]": {"tested_on": "IHDT-6 (International Health Division-Tumor-6)", "assay_type": "cell-based"}, "Cellules B": {"tested_on": "Cellules B", "test": "Proliferation of mouse B cells (3H-thymidine incorporation)", "assay_type": "cell-based, souris", "conditions": "for inhibition at 200 µg/mL: B-cell, read-out: pourcentage d'augmentation (+) ou d'inhibition (-) de la prolifération", "excerpt": "Les anticorps utilisés sont des anticorps monoclonaux (AM) naturels (N5-12, N5-17, MO-1, 62-1, D-23) et proviennent d'hybridomes préparés par fusion des cellules de rate de souris n'ayant reçu aucune immunisation au préalable ni aucune stimulation mitogénique, avec le myélome de souris X63-Ag8. Les hybridomes TNP11 et TNP9 proviennent de fusion des cellules de rate de souris immunisées avec du Ficoll-TNP. Ils ont été maintenus en culture dans le milieu RPMI complet contenant 10% de sérum de veau foetal. Les hybridomes ont été injectés à des souris Balb/c préalablement traitées au pristane dans le but d'obtenir des ascites. Les AM ont été utilisés en tant que surnageants de culture ou en tant qu'ascites ou après isolement par chromatographie d'affinité sur une colonne de DNP-Sépharose. Ces anticorps ont été testés par test immunoenzymatique sur différents antigènes immobilisés sur des plaques de polystyrène et révélés par un anticorps anti-Ig de souris couplé à la β-galactosidase.\nLe TNP a été couplé à la sérumalbumine bovine (BSA) par la méthode de Little & Eisen : 1ml de BSA à 20mg/ml dans le tampon carbonate-bicarbonate, 0,1M, pH 9,5, est ajouté à 1ml d'une solution d'acide trinitrobenzène sulfonique à 2 mg/ml dans le même tampon. La réaction est arrêtée après 30 à 120 minutes selon la substitution voulue par élimination de l'excès de réactifs sur échangeur d'ions (Dowex 1 x 4) puis dialyse. Des préparations de BSA substituée avec soit 14 ou 30 molécules de TNP par molécule de BSA (TNP₁₄-BSA ou TNP₃₀-BSA) ont été utilisées.\nLe DNP-Glycine (DNP-Gly) et le DNP-Lysine (DNP-Lys) proviennent des Laboratoires Sigma et sont solubilisés directement dans le milieu de culture.\nLes cellules proviennent de rate ou de thymus de souris. Les souris sont tuées par dislocation cervicale et leur rate ou leur thymus prélevé stérilement sont déposés dans du milieu RPMI. Les cellules sont dissociées, lavées une fois avec du milieu puis les globules rouges sont lysés au chlorure d'ammonium (0,9%) pendant 1 minute à froid puis les cellules sont relavées dans le milieu complet.\nLes sous-populations de cellules B ou T sont ensuite séparées comme suit : • Sous-population T : les cellules T sont obtenues à partir de la population de cellules de la rate par élimination des cellules portant des Ig à leur surface (sous-population B) sur des anticorps anti-Ig de souris immobilisés soit sur des billes magnétiques (Magnogel)® soit sur des boites de Pétri. • Sous-population B : les cellules B sont obtenues après détachement mécanique des supports dur lesquels elles étaient fixées par l'intermédiaire des anticorps anti-Ig (après l'isolement des cellules T), ou après élimination de la sous-population des cellules T de la population totale des cellules de rate par un traitement avec un anticorps anti-cellules T suivi de complément de cobaye. • Thymocytes : les thymocytes sont dissociés dans le RPMI et les cellules isolées sont lavées dans le milieu complet avant d'être mises en culture.\nLe milieu de culture utilisé est du RPMI 1640 contenant du sérum de veau foetal (5%), du pyruvate de sodium (1mM), de la L-glutamine (1mM), du 2-mercaptoethanol (0,05 mM), de la pénicilline (100»g/ml) et de la streptomycine (50»g/ml).\n2x10⁵ cellules de chaque population cellulaire ou 4x10⁵ de cellules de rate non fractionnées sont distribuées sous un volume final de 200»l dans des boîtes de culture de 96 puits à fond plat en présence ou non des différents stimulateurs (ou mitogènes)(40»g/ml de lipopolysaccharide W Salmonella typhosa 2»g/ml de concanavaline A, ou des surnageants de culture contenant les anticorps monoclonaux à différentes dilutions ou une solution de TNP-BSA à des concentrations finales allant de 200ng à 200»g/ml). Les cultures sont effectuées pendant 48 à 96 heures à 37°C dans une atmosphère de 5% de CO2.\nSix à huit heures avant la fin de la culture, 100»l de surnageant sont prélevés de chaque puits de culture afin d'être testés quant à leur contenu en anticorps. […]"}, "[3]": {"tested_on": "EMCV (Encephalomyocarditis Virus)", "test": "microbe, parasite or virus in culture", "assay_type": "cell-based"}, "[4]": {"conditions": "200µg/ml, LPS* (mitogène ajouté après 48 heures)"}, "[5]": {"conditions": "3 (µg/ml), LPS* (mitogène ajouté après 48 heures)"}, "[6]": {"conditions": "12 (µg/ml), LPS* (mitogène ajouté après 48 heures)"}, "[7]": {"conditions": "50 (µg/ml), LPS* (mitogène ajouté après 48 heures)"}, "[8]": {"conditions": "Vesicular stomatitis virus, L929"}},
  "note": "Where two headings read alike, the source gives them in different places.",
  "data": [
    {"molecule": "TNP-BSA", "values": [
      {"measurement": "% Inhibition", "setting": "[1]; 0,03 mg/ml", "result": 0, "unit": "%"},
      {"measurement": "% Inhibition", "setting": "[1]; 0,5 mg/ml", "result": 12, "unit": "%"},
      {"measurement": "% Inhibition", "setting": "[1]; 0,06 mg/ml", "result": 0, "unit": "%"},
      {"measurement": "% Inhibition", "setting": "[1]; 0,12 mg/ml", "result": 0, "unit": "%"},
      {"measurement": "% Inhibition", "setting": "[1]; 0,25 mg/ml", "result": 0, "unit": "%"},
      {"measurement": "% Inhibition", "setting": "[1]; 1,0 mg/ml", "result": 15, "unit": "%"},
      {"measurement": "% Inhibition", "setting": "[1]; 2,0 mg/ml", "result": 24, "unit": "%"},
      {"measurement": "% Inhibition", "setting": "[2]; 0,3 mg/ml", "result": 37, "unit": "%"},
      {"measurement": "% Inhibition", "setting": "[2]; 0,6 mg/ml", "result": 51, "unit": "%"},
      {"measurement": "% Inhibition", "setting": "[2]; 0,07 mg/ml", "result": 21, "unit": "%"},
      {"measurement": "% Inhibition", "setting": "[2]; 0,15 mg/ml", "result": 31, "unit": "%"},
      {"measurement": "% Inhibition", "setting": "[2]; 1,2 mg/ml", "result": 73, "unit": "%"},
      {"measurement": "% Inhibition", "setting": "[2]; 2,4 mg/ml", "result": 72, "unit": "%"},
      {"measurement": "pourcentage d'augmentation (+) ou d'inhibition (-) de la prolifération", "setting": "Cellules B; [4]", "result": "+18%"},
      {"measurement": "pourcentage d'augmentation (+) ou d'inhibition (-) de la prolifération", "setting": "Cellules B; 200µg/ml, M (milieu seul)", "result": "+100%"},
      {"measurement": "pourcentage d'augmentation (+) ou d'inhibition (-) de la prolifération", "setting": "Cellules B; [5]", "result": 0, "unit": "%"},
      {"measurement": "pourcentage d'augmentation (+) ou d'inhibition (-) de la prolifération", "setting": "Cellules B; 3 (µg/ml), M (milieu seul)", "result": 0, "unit": "%"},
      {"measurement": "pourcentage d'augmentation (+) ou d'inhibition (-) de la prolifération", "setting": "Cellules B; [6]", "result": 0, "unit": "%"},
      {"measurement": "pourcentage d'augmentation (+) ou d'inhibition (-) de la prolifération", "setting": "Cellules B; 12 (µg/ml), M (milieu seul)", "result": 0, "unit": "%"},
      {"measurement": "pourcentage d'augmentation (+) ou d'inhibition (-) de la prolifération", "setting": "Cellules B; [7]", "result": 0, "unit": "%"},
      {"measurement": "pourcentage d'augmentation (+) ou d'inhibition (-) de la prolifération", "setting": "Cellules B; 50 (µg/ml), M (milieu seul)", "result": "+50%"},
      {"measurement": "% Inhibition", "setting": "[3]; 0,03 mg/ml", "result": 0, "unit": "%"},
      {"measurement": "% Inhibition", "setting": "[3]; 0,5 mg/ml", "result": 8, "unit": "%"},
      {"measurement": "% Inhibition", "setting": "[3]; 0,06 mg/ml", "result": 0, "unit": "%"},
      {"measurement": "% Inhibition", "setting": "[3]; 0,12 mg/ml", "result": 0, "unit": "%"},
      {"measurement": "% Inhibition", "setting": "[3]; 0,25 mg/ml", "result": 0, "unit": "%"},
      {"measurement": "% Inhibition", "setting": "[3]; 1,0 mg/ml", "result": 4, "unit": "%"},
      {"measurement": "% Inhibition", "setting": "[3]; 2,0 mg/ml", "result": 14, "unit": "%"}
    ]},
    {"molecule": "O=C(O)CNc1ccc([N+](=O)[O-])cc1[N+](=O)[O-]", "note": "[DNP-glycine, DNP-Glycine]", "values": [
      {"measurement": "inhibition at 30 µg/mL", "setting": "[1]; [8]", "result": 0, "unit": "%"},
      {"measurement": "inhibition at 70 µg/mL", "setting": "[1]; [8]", "result": 0, "unit": "%"},
      {"measurement": "inhibition at 150 µg/mL", "setting": "[1]; [8]", "result": 6, "unit": "%"},
      {"measurement": "inhibition at 300 µg/mL", "setting": "[1]; [8]", "result": 38, "unit": "%"},
      {"measurement": "inhibition at 600 µg/mL", "setting": "[1]; [8]", "result": 47, "unit": "%"},
      {"measurement": "inhibition at 1200 µg/mL", "setting": "[1]; [8]", "result": 68, "unit": "%"},
      {"measurement": "inhibition at 2400 µg/mL", "setting": "[1]; [8]", "result": 41, "unit": "%"},
      {"measurement": "minimal effective concentration", "setting": "[1]; Vesicular stomatitis virus, L929, 72 h, read-out: a un effet jusqu'à une concentration de", "result": 1200, "unit": "µg/mL"},
      {"measurement": "pourcentage d'augmentation (+) ou d'inhibition (-) de la prolifération", "setting": "Cellules B; [5]", "result": -7, "unit": "%"},
      {"measurement": "pourcentage d'augmentation (+) ou d'inhibition (-) de la prolifération", "setting": "Cellules B; 3 (µg/ml), M (milieu seul)", "result": -25, "unit": "%"},
      {"measurement": "pourcentage d'augmentation (+) ou d'inhibition (-) de la prolifération", "setting": "Cellules B; [6]", "result": -40, "unit": "%"},
      {"measurement": "pourcentage d'augmentation (+) ou d'inhibition (-) de la prolifération", "setting": "Cellules B; 12 (µg/ml), M (milieu seul)", "result": -50, "unit": "%"},
      {"measurement": "pourcentage d'augmentation (+) ou d'inhibition (-) de la prolifération", "setting": "Cellules B; [7]", "result": -64, "unit": "%"},
      {"measurement": "pourcentage d'augmentation (+) ou d'inhibition (-) de la prolifération", "setting": "Cellules B; 50 (µg/ml), M (milieu seul)", "result": -60, "unit": "%"},
      {"measurement": "inhibition at 200 µg/mL", "setting": "Cellules B; [4]", "result": -80, "unit": "%"},
      {"measurement": "inhibition at 200 µg/mL", "setting": "Cellules B; 200µg/ml, M (milieu seul)", "result": -90, "unit": "%"},
      {"measurement": "minimal effective concentration", "setting": "[3]; Cardiovirus A, L929, 24 h, read-out: séroneutralise jusqu'à une concentration de", "result": 600, "unit": "µg/mL"},
      {"measurement": "inhibition at 30 µg/mL", "setting": "[3]; Cardiovirus A, L929, 0,03 mg/ml", "result": 0, "unit": "%"},
      {"measurement": "inhibition at 300 µg/mL", "setting": "[3]; Cardiovirus A, L929, 0,3 mg/ml", "result": 32, "unit": "%"},
      {"measurement": "inhibition at 600 µg/mL", "setting": "[3]; Cardiovirus A, L929, 0,6 mg/ml", "result": 62, "unit": "%"},
      {"measurement": "inhibition at 70 µg/mL", "setting": "[3]; Cardiovirus A, L929, 0,07 mg/ml", "result": 0, "unit": "%"},
      {"measurement": "inhibition at 150 µg/mL", "setting": "[3]; Cardiovirus A, L929, 0,15 mg/ml", "result": 20, "unit": "%"},
      {"measurement": "inhibition at 1200 µg/mL", "setting": "[3]; Cardiovirus A, L929, 1,2 mg/ml", "result": 78, "unit": "%"}
    ]}
  ]
}
